Measurements reported in US20160242416A1, “FUNGICIDAL ISOXAZOLINE CARBINOLS” (E I DU PONT DE NEMOURS AND COMPANY, priority 2015, published 2016).
Like-named read-outs stand apart in the source and are kept apart here.

Tests used:
Plasmopara viticola = experiment: Test A: grape downy mildew, preventive spray on grape seedlings; format: in vivo; details: 100 = 100% disease control, 0 = no control
Text: A dash (-) indicates no test results.

Phytophthora infestans = format: in vivo; details: tomato late blight, 100 = 100% disease control, 0 = no control
Botrytis cinerea = experiment: Test B: gray mold, preventive spray on tomato seedlings; details: gray mold on tomato, 100 = 100% disease control, 0 = no control
Text: General protocol for preparing test solutions for Tests A-G: the test compounds were first dissolved in acetone in an amount equal to 3% of the final volume and then suspended at the desired concentration (in ppm) in acetone and purified water (50/50 mix by volume) containing 250 ppm of the surfactant PEG400 (polyhydric alcohol esters). The resulting test suspensions were then used in Tests A-G. Compounds were sprayed at a concentration of 50 ppm (*) or 10 ppm to the point of run-off on the test plants, the equivalent of a rate of 200 g/ha or 40 g/ha, respectively.
The test solution was sprayed to the point of run-off on tomato seedlings. The following day the seedlings were inoculated with a spore suspension of Botrytis cinerea (the causal agent of gray mold on many crops) and incubated in a saturated atmosphere at 20° C. for 48 h, and moved to a growth chamber at 27° C. for 2 days, after which time visual disease ratings were made.
Compounds with an asterisks (*) were applied at a concentration of 50 ppm, otherwise test solutions were applied at 10 ppm.

[1] = tested on: Puccinia recondita f sp. tritici; experiment: Test F: wheat leaf rust, preventive spray on wheat seedlings; details: wheat leaf rust, 100 = 100% disease control, 0 = no control
Zymoseptoria tritici = experiment: Test E: wheat leaf blotch, preventive spray on wheat seedlings; details: wheat leaf blotch, 100 = 100% disease control, 0 = no control
Stagonospora nodorum = experiment: Test D: wheat glume blotch, preventive spray on wheat seedlings; details: wheat glume blotch, 100 = 100% disease control, 0 = no control
[2] = tested on: Erysiphe graminis f sp. tritici; experiment: Test G: wheat powdery mildew, preventive spray on wheat seedlings; details: wheat powdery mildew, 100 = 100% disease control, 0 = no control

Row | SMILES | Test A rating (% disease control) (Plasmopara viticola; 50 ppm (asterisk)) [%] | Test C rating (% disease control) (Phytophthora infestans; 50 ppm (asterisk)) [%] | Test B rating (% disease control) (Botrytis cinerea; 50 ppm (asterisk)) [%] | Test F rating (% disease control) ([1]; 50 ppm (asterisk)) [%] | Test E rating (% disease control) (Zymoseptoria tritici; 50 ppm (asterisk)) [%] | Test D rating (% disease control) (Stagonospora nodorum; 50 ppm (asterisk)) [%] | Test G rating (% disease control) ([2]; 50 ppm (asterisk)) [%] | Test A rating (% disease control) (Plasmopara viticola; 10 ppm) [%] | Test C rating (% disease control) (Phytophthora infestans; 10 ppm) [%] | Test B rating (% disease control) (Botrytis cinerea; 10 ppm) [%] | Test F rating (% disease control) ([1]; 10 ppm) [%] | Test E rating (% disease control) (Zymoseptoria tritici; 10 ppm) [%] | Test D rating (% disease control) (Stagonospora nodorum; 10 ppm) [%] | Test G rating (% disease control) ([2]; 10 ppm) [%]
1 | CC(O)(Cn1cncn1)C1=NOC(c2ccc(Cl)cc2)C1 (single isomer, unassigned) [Compound 35] | 21 | 0 | 0 | 40 | 0 | 63 | 100 | – | – | – | – | – | – | –
2 | CC(C)C(O)(Cn1cncn1)C1=NOC(c2ccc(Cl)cc2)C1 (single isomer, unassigned) [Compound 3] | – | – | – | – | – | – | – | 9 | 0 | 46 | 97 | 0 | 100 | 100
3 | OC(Cn1cncn1)(C1=NOC(COc2ccc(Cl)cc2)C1)c1ccc(Cl)cc1 (single isomer, unassigned) [Compound 61] | – | – | – | – | – | – | – | 4 | 0 | 0 | 100 | 99 | 94 | 100
4 | OC(Cn1cncn1)(C1=NOC(COc2ccc(C(F)(F)F)cc2)C1)c1ccc(Cl)cc1 (single isomer, unassigned) [Compound 63] | – | – | – | – | – | – | – | 3 | 0 | 0 | 100 | 97 | 41 | 100
5 | CCC(O)(Cn1cncn1)C1=NOC(c2ccc(Cl)cc2)C1 (mixture of isomers) [Compound 34] | 34 | 0 | 0 | 53 | 0 | 99 | 100 | – | – | – | – | – | – | –
6 | CC(C)C(O)(Cn1cncn1)C1=NOC(c2ccc(Cl)cc2)C1 (single isomer, unassigned) [Compound 4] | – | – | – | – | – | – | – | 0 | 0 | 9 | 98 | 0 | 100 | 99
7 | OC(Cc1ccc(Cl)cc1)(Cn1cncn1)C1=NOC(c2ccc(Cl)cc2)C1 (single isomer, unassigned) [Compound 93] | – | – | – | – | – | – | – | 0 | 0 | 0 | 100 | 4 | 99 | 100
8 | C=CCC(O)(Cn1cncn1)C1=NOC(c2ccc(Cl)cc2)C1 (single isomer, unassigned) [Compound 85] | – | – | – | – | – | – | – | 19 | 0 | 0 | 0 | 0 | 68 | 87
9 | CCCC(O)(Cn1cncn1)C1=NOC(c2ccc(Cl)cc2)C1 (single isomer, unassigned) [Compound 83] | – | – | – | – | – | – | – | 1 | 0 | 0 | 99 | 0 | 87 | 99
10 | OC(Cc1ccc(Cl)cc1)(Cn1cncn1)C1=NOC(c2ccc(Cl)cc2)C1 (single isomer, unassigned) [Compound 94] | – | – | – | – | – | – | – | 0 | 0 | 0 | 100 | 0 | 98 | 99
11 | CCCC(O)(Cn1cncn1)C1=NOC(c2ccc(Cl)cc2)C1 (single isomer, unassigned) [Compound 82] | – | – | – | – | – | – | – | 1 | 0 | 33 | 98 | 0 | 99 | 100
12 | OC(Cn1cncn1)(C1=NOC(COc2ccc(Cl)cc2)C1)c1ccc(Cl)cc1 (single isomer, unassigned) [Compound 62] | – | – | – | – | – | – | – | 3 | 0 | 0 | 92 | 0 | 0 | 96
13 | OC(Cn1cncn1)(C1=NOC(COc2ccc(C(F)(F)F)cc2)C1)c1ccc(Cl)cc1 (single isomer, unassigned) [Compound 64] | – | – | – | – | – | – | – | 12 | 0 | 0 | 80 | 2 | 50 | 94
14 | OC(Cn1cncn1)(C1=NOC(c2ccc(-n3cncn3)cc2)C1)c1ccc(Cl)cc1 (mixture of isomers) [Compound 2] | – | – | – | – | – | – | – | 33 | 0 | 0 | 100 | 0 | 0 | 99
15 | CC(O)(Cn1cncn1)C1=NOC(c2ccc(Cl)cc2)C1 (single isomer, unassigned) [Compound 36] | 11 | 0 | 0 | 17 | 0 | 53 | 99 | – | – | – | – | – | – | –
16 | OC(Cn1cncn1)(C1=NOC(Cn2ccc(-c3ccc(C(F)(F)F)cc3)n2)C1)c1ccc(Cl)cc1 (single isomer, unassigned) [Compound 67] | – | – | – | – | – | – | – | 13 | 0 | 0 | 100 | 0 | 0 | 99
17 | OC(Cn1cncn1)(C1=NOC(Cn2ccc(-c3ccc(Cl)cc3)n2)C1)c1ccc(Cl)cc1 (single isomer, unassigned) [Compound 65] | – | – | – | – | – | – | – | 3 | 0 | 0 | 100 | 0 | 0 | 98
18 | OC(Cn1cncn1)(C1=NOC(Cn2ccc(-c3ccc(Cl)cc3)n2)C1)c1ccc(Cl)cc1 (single isomer, unassigned) [Compound 66] | – | – | – | – | – | – | – | 3 | 0 | 0 | 98 | 1 | 0 | 97
